In PubChem BioAssay (NCI):
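1) Cells in 96-well plates. 2) Compound, 48 h, 5 concentrations. 3) Linear interpolation between surrounding doses. 4) Unreached endpoint = highest concentration. GI50 marks 50% less growth. TGI is the concentration that stops growth completely.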

Columns and labels:
Experiment in all cases: DTP human tumour cell line panel, 48 h
786-0 renal = tested on: 786-0 renal
A498 renal = tested on: A498 renal
A549 NSCLC = tested on: A549 NSCLC
ACHN renal = tested on: ACHN renal
BT-549 breast = tested on: BT-549 breast
CAKI-1 renal = tested on: CAKI-1 renal
CCRF-CEM leukemia = tested on: CCRF-CEM leukemia
COLO 205 colon = tested on: COLO 205 colon
DU-145 prostate = tested on: DU-145 prostate
EKVX NSCLC = tested on: EKVX NSCLC
HCC-2998 colon = tested on: HCC-2998 colon
HCT-116 colon = tested on: HCT-116 colon
HCT-15 colon = tested on: HCT-15 colon
HL-60(TB) leukemia = tested on: HL-60(TB) leukemia
HOP-62 NSCLC = tested on: HOP-62 NSCLC
HOP-92 NSCLC = tested on: HOP-92 NSCLC
HS 578T breast = tested on: HS 578T breast
HT29 colon = tested on: HT29 colon
IGROV1 ovarian = tested on: IGROV1 ovarian
K-562 leukemia = tested on: K-562 leukemia
KM12 colon = tested on: KM12 colon
LOX IMVI melanoma = tested on: LOX IMVI melanoma
M14 melanoma = tested on: M14 melanoma
MALME-3M melanoma = tested on: MALME-3M melanoma
MCF7 breast = tested on: MCF7 breast
MDA-MB-231 breast = tested on: MDA-MB-231 breast
MDA-MB-435 = tested on: MDA-MB-435
MOLT-4 leukemia = tested on: MOLT-4 leukemia
NCI-H226 lung = tested on: NCI-H226 lung
NCI-H23 lung = tested on: NCI-H23 lung
NCI-H460 lung = tested on: NCI-H460 lung
NCI-H522 lung = tested on: NCI-H522 lung
NCI/ADR-RES ovarian = tested on: NCI/ADR-RES ovarian
OVCAR-4 ovarian = tested on: OVCAR-4 ovarian
OVCAR-5 ovarian = tested on: OVCAR-5 ovarian
OVCAR-8 ovarian = tested on: OVCAR-8 ovarian
PC-3 prostate = tested on: PC-3 prostate
RPMI-8226 leukemia = tested on: RPMI-8226 leukemia
RXF 393 renal = tested on: RXF 393 renal
SF-268 CNS = tested on: SF-268 CNS
SF-295 CNS = tested on: SF-295 CNS
SF-539 CNS = tested on: SF-539 CNS
SK-MEL-2 melanoma = tested on: SK-MEL-2 melanoma
SK-MEL-28 melanoma = tested on: SK-MEL-28 melanoma
SK-MEL-5 melanoma = tested on: SK-MEL-5 melanoma
SK-OV-3 ovarian = tested on: SK-OV-3 ovarian
SN12C renal = tested on: SN12C renal
SNB-19 CNS = tested on: SNB-19 CNS
SNB-75 CNS = tested on: SNB-75 CNS
SR leukemia = tested on: SR leukemia
SW-620 colon = tested on: SW-620 colon
T-47D breast = tested on: T-47D breast
TK-10 renal = tested on: TK-10 renal
U251 CNS = tested on: U251 CNS
UACC-257 melanoma = tested on: UACC-257 melanoma
UACC-62 melanoma = tested on: UACC-62 melanoma
UO-31 renal = tested on: UO-31 renal

For Cc1ccc(-c2nnc(SCc3ccc(O)c4ncccc34)n2-c2ccccc2)cc1, the GI50 (786-0 renal) was 509 nM, the TGI (786-0 renal) was 26700 nM and the GI50 (A498 renal) was 1500 nM. It also gave a TGI (A498 renal) of 13200 nM, a GI50 (A549 NSCLC) of 366 nM and a TGI (A549 NSCLC) greater than 100000 nM. It also gave a GI50 (ACHN renal) of 144 nM, a TGI (ACHN renal) of 8020 nM and a GI50 (BT-549 breast) of 201 nM. The TGI (BT-549 breast) was greater than 21700 nM, the GI50 (CAKI-1 renal) was 312 nM and the TGI (CAKI-1 renal) was 7790 nM. The GI50 (CCRF-CEM leukemia) was 94.9 nM, the TGI (CCRF-CEM leukemia) was greater than 100000 nM and the GI50 (COLO 205 colon) was 1440 nM. It also gave a TGI (COLO 205 colon) of 6090 nM, a GI50 (DU-145 prostate) of 298 nM and a TGI (DU-145 prostate) greater than 100000 nM. The GI50 (EKVX NSCLC) was 395 nM, the TGI (EKVX NSCLC) was greater than 60800 nM and the GI50 (HCC-2998 colon) was 326 nM. The TGI (HCC-2998 colon) was greater than 100000 nM, the GI50 (HCT-116 colon) was 46.7 nM and the TGI (HCT-116 colon) was greater than 35300 nM. It also gave a GI50 (HCT-15 colon) of 66.6 nM, a TGI (HCT-15 colon) greater than 100000 nM and a GI50 (HL-60(TB) leukemia) of 161 nM. For the same compound, the TGI (HL-60(TB) leukemia) was greater than 39800 nM, the GI50 (HOP-62 NSCLC) was 345 nM and the TGI (HOP-62 NSCLC) was 2630 nM. For the same compound, the GI50 (HOP-92 NSCLC) was 195 nM, the TGI (HOP-92 NSCLC) was 1250 nM and the GI50 (HS 578T breast) was 236 nM. It also gave a TGI (HS 578T breast) of 2000 nM, a GI50 (HT29 colon) of 3780 nM and a TGI (HT29 colon) greater than 100000 nM. For the same compound, the GI50 (IGROV1 ovarian) was 284 nM, the TGI (IGROV1 ovarian) was greater than 100000 nM and the GI50 (K-562 leukemia) was 217 nM. For the same compound, the TGI (K-562 leukemia) was greater than 100000 nM, the GI50 (KM12 colon) was 294 nM and the TGI (KM12 colon) was greater than 100000 nM. The GI50 (LOX IMVI melanoma) was 206 nM, the TGI (LOX IMVI melanoma) was 3970 nM and the GI50 (M14 melanoma) was 166 nM. The TGI (M14 melanoma) was 3240 nM, the GI50 (MALME-3M melanoma) was 353 nM and the TGI (MALME-3M melanoma) was 6670 nM. For the same compound, the GI50 (MCF7 breast) was 81.9 nM, the TGI (MCF7 breast) was greater than 100000 nM and the GI50 (MDA-MB-231 breast) was 439 nM. For the same compound, the TGI (MDA-MB-231 breast) was 24900 nM, the GI50 (MDA-MB-435) was 110 nM and the TGI (MDA-MB-435) was greater than 100000 nM. The GI50 (MOLT-4 leukemia) was 196 nM, the TGI (MOLT-4 leukemia) was greater than 100000 nM and the GI50 (NCI-H226 lung) was 973 nM. For the same compound, the TGI (NCI-H226 lung) was greater than 100000 nM, the GI50 (NCI-H23 lung) was 254 nM and the TGI (NCI-H23 lung) was greater than 39800 nM. It also gave a GI50 (NCI-H460 lung) of 38.2 nM, a TGI (NCI-H460 lung) of 1580 nM and a GI50 (NCI-H522 lung) of 305 nM. For the same compound, the TGI (NCI-H522 lung) was 4240 nM, the GI50 (NCI/ADR-RES ovarian) was 147 nM and the TGI (NCI/ADR-RES ovarian) was 2270 nM. For the same compound, the GI50 (OVCAR-4 ovarian) was 431 nM, the TGI (OVCAR-4 ovarian) was greater than 100000 nM and the GI50 (OVCAR-5 ovarian) was 1130 nM. For the same compound, the TGI (OVCAR-5 ovarian) was greater than 100000 nM, the GI50 (OVCAR-8 ovarian) was 175 nM and the TGI (OVCAR-8 ovarian) was 2140 nM. It also gave a GI50 (PC-3 prostate) of 164 nM, a TGI (PC-3 prostate) greater than 100000 nM and a GI50 (RPMI-8226 leukemia) of 232 nM. It also gave a TGI (RPMI-8226 leukemia) greater than 100000 nM, a GI50 (RXF 393 renal) of 399 nM and a TGI (RXF 393 renal) of 24000 nM. The GI50 (SF-268 CNS) was 90.6 nM, the TGI (SF-268 CNS) was 10900 nM and the GI50 (SF-295 CNS) was 265 nM. The TGI (SF-295 CNS) was 4270 nM, the GI50 (SF-539 CNS) was 272 nM and the TGI (SF-539 CNS) was 3160 nM. The GI50 (SK-MEL-2 melanoma) was 276 nM, the TGI (SK-MEL-2 melanoma) was 875 nM and the GI50 (SK-MEL-28 melanoma) was 376 nM. It also gave a TGI (SK-MEL-28 melanoma) greater than 100000 nM, a GI50 (SK-MEL-5 melanoma) of 337 nM and a GI50 (SK-OV-3 ovarian) of 370 nM. For the same compound, the TGI (SK-OV-3 ovarian) was 4050 nM, the GI50 (SN12C renal) was 329 nM and the TGI (SN12C renal) was greater than 100000 nM. For the same compound, the GI50 (SNB-19 CNS) was 231 nM, the TGI (SNB-19 CNS) was 31100 nM and the GI50 (SNB-75 CNS) was 248 nM. The TGI (SNB-75 CNS) was 2680 nM, the GI50 (SR leukemia) was 78.2 nM and the TGI (SR leukemia) was greater than 100000 nM. For the same compound, the GI50 (SW-620 colon) was 192 nM, the TGI (SW-620 colon) was greater than 100000 nM and the GI50 (T-47D breast) was 289 nM. It also gave a TGI (T-47D breast) of 3530 nM, a GI50 (TK-10 renal) of 249 nM and a TGI (TK-10 renal) of 4400 nM. The GI50 (U251 CNS) was 98.9 nM, the TGI (U251 CNS) was 1740 nM and the GI50 (UACC-257 melanoma) was 388 nM. It also gave a TGI (UACC-257 melanoma) of 4220 nM, a GI50 (UACC-62 melanoma) of 347 nM and a TGI (UACC-62 melanoma) of 2210 nM. The GI50 (UO-31 renal) was 155 nM and the TGI (UO-31 renal) was 1260 nM.
